What all share (details): 72 h
The test system of one experiment is MDA-MB-468. In short, it runs like this:
(§1)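 EC50 was fitted from dose-response curves and censored at the highest concentration tested. To build those curves, breast cancer cell lines (20 µl suspension) were seeded into 384-well plates containing compound at 5 concentrations in 10-fold steps over a compound-specific 10,000-fold range and incubated for 72 h. Readouts were CellTox Green fluorescence (485/520 nm) for cell death and then CellTiter-Glo luminescence for viability, with each plate normalised to 0.1 % DMSO and a positive kill control.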

The test system of a further experiment is CAL-85-1. In short, it runs like this:
as §1

The next experiment deals with SK-BR-3. In short, it runs like this: as §1
For another experiment, the system named is CAL-51. The essentials: as §1
The next experiment deals with MDA-MB-231. In short, it runs like this:
as §1

In the next experiment the test system is MDA-MB-453. In short, it runs like this: as §1
The next experiment has as its system Hs578T. The essentials: as §1
A further experiment relates to BT-549. The essentials: as §1
A further experiment relates to BT-474. In short, it runs like this: as §1
A further experiment deals with DU-4475. The essentials: as §1
The next experiment deals with HDQ-P1. The essentials: as §1
Another experiment has as its system HCC1599. In short, it runs like this: as §1
In another experiment the test system is CAL-120. The essentials:
as §1

Another experiment concerns MDA-MB-436. In short, it runs like this:
as §1

The test system of another experiment is MFM-223. The essentials:
as §1

A further experiment deals with HCC1937. In short, it runs like this: as §1

Where only a bound is given, the exact number is not on record here.

Turning to `CCn1c(C(=O)N(C2CC2)C2CC2)cc2c3c(ncn3C)c(Nc3cc(C)n(C)n3)nc21`, the “EC50, CellTiter-Glo” value with MDA-MB-468 is more than 10000 nM.

With `COc1ccc(S(=O)(=O)Nc2cccnc2Nc2ccc(O)cc2)cc1` [ABT-751], the “EC50, CellTiter-Glo” value stood at 264 nM in the experiment on CAL-85-1; 529 nM with SK-BR-3; 6520 nM with CAL-51; 740 nM in the experiment with MDA-MB-231; 149 nM in the experiment on MDA-MB-453; 773 nM in the experiment on Hs578T. In addition, the “EC50, CellTiter-Glo” value in the experiment on BT-549 was 499 nM; in the experiment with BT-474, 575 nM; in the experiment with DU-4475 it was 1510 nM; in the experiment with HDQ-P1, 231 nM; with HCC1599, 752 nM; in the experiment on CAL-120 it was 218 nM. Moreover, the “EC50, CellTiter-Glo” value with MDA-MB-468 is 397 nM; in the experiment with MDA-MB-436 it was 507 nM; in the experiment on MFM-223, 1010 nM; with HCC1937 it was 350 nM.

Regarding `CN[C@@H](C)C(=O)N[C@H]1CN(C(=O)CC(C)C)CC[C@H]2CC[C@@H](C(=O)NC(c3ccccc3)c3ccccc3)N2C1=O` [AT-406], the “EC50, CellTiter-Glo” value in the experiment with CAL-85-1 is 826 nM; in the experiment on MDA-MB-231 it was 278 nM; with MDA-MB-453, 4490 nM; with BT-549 it was 5.97 nM; in the experiment with BT-474, 83.8 nM; with MDA-MB-468, 563 nM.

On to `Cc1cc(Nc2nc(N[C@@H](C)c3ncc(F)cn3)ncc2Cl)[nH]n1` [AZD1480], for which the “EC50, CellTiter-Glo” value in the experiment on MFM-223 turned out to be 94.6 nM.

As to `CNC(=O)c1ccccc1Sc1ccc2c(/C=C/c3ccccn3)n[nH]c2c1` [Axitinib], the “EC50, CellTiter-Glo” value worked out at 465 nM in the experiment with CAL-51; 4770 nM in the experiment on HDQ-P1; 881 nM with HCC1599; 3570 nM in the experiment with CAL-120; 3880 nM in the experiment with MDA-MB-468; 3040 nM in the experiment with MDA-MB-436. Moreover, in the experiment with MFM-223, the “EC50, CellTiter-Glo” value was 348 nM.

For the molecule `CC(O)(CS(=O)(=O)c1ccc(F)cc1)C(=O)Nc1ccc(C#N)c(C(F)(F)F)c1` (stereo not given) [Bicalutamide], the “EC50, CellTiter-Glo” value with MDA-MB-453 was more than 10000 nM.

As for `COc1cc(Nc2c(C#N)cnc3cc(OCCCN4CCN(C)CC4)c(OC)cc23)c(Cl)cc1Cl` [Bosutinib], the “EC50, CellTiter-Glo” value with CAL-85-1 is 1580 nM; in the experiment with SK-BR-3 it was 3120 nM; in the experiment on CAL-51, 1400 nM; in the experiment with MDA-MB-231 it was 1810 nM; in the experiment with MDA-MB-453 it was 3220 nM; with Hs578T, 9760 nM. The “EC50, CellTiter-Glo” value came out at 3160 nM in the experiment on BT-549; 2480 nM in the experiment with BT-474; 972 nM with HDQ-P1; 3160 nM in the experiment on HCC1599; 1450 nM with CAL-120; 1920 nM in the experiment on MDA-MB-468. The “EC50, CellTiter-Glo” value stood at 2170 nM in the experiment on MDA-MB-436, 1910 nM in the experiment with MFM-223 and 2100 nM in the experiment on HCC1937.

As for `CCN(CC)CCCC(C)Nc1ccnc2cc(Cl)ccc12` (stereo not given) [Chloroquine], the “EC50, CellTiter-Glo” value in the experiment with CAL-85-1 turned out to be 11300 nM; in the experiment with SK-BR-3 it was 4910 nM; in the experiment on CAL-51 it was 6560 nM; with MDA-MB-231, 16300 nM; in the experiment with MDA-MB-453, 4030 nM; in the experiment with Hs578T, 30200 nM. Also, the “EC50, CellTiter-Glo” value in the experiment on BT-549 stood at 15000 nM; in the experiment with BT-474, 14500 nM; with DU-4475 it was 18700 nM; with HDQ-P1, 20700 nM; in the experiment with HCC1599, 14100 nM; with CAL-120 it was 9490 nM. Further, the “EC50, CellTiter-Glo” value with MDA-MB-468 came out at 10600 nM; in the experiment on MDA-MB-436, 16300 nM; in the experiment on MFM-223, 13700 nM; with HCC1937, 15300 nM.

With `CC1(COc2ccc3c(c2)ncn3-c2ccc3cccc(N4CCC(N)CC4)c3n2)COC1` [Crenolanib], the “EC50, CellTiter-Glo” value in the experiment on CAL-85-1 is 3970 nM; with SK-BR-3 it was 4180 nM; with CAL-51, 2630 nM; in the experiment with MDA-MB-231, 4020 nM; in the experiment on MDA-MB-453 it was 5370 nM; with Hs578T it was 3340 nM. Also, the “EC50, CellTiter-Glo” value with BT-549 is 1670 nM; with BT-474 it was 3980 nM; in the experiment with DU-4475, 3330 nM; in the experiment with HDQ-P1, 5070 nM; in the experiment with HCC1599 it was more than 10000 nM; in the experiment on MDA-MB-468, 4750 nM. For the same molecule, the figures for the “EC50, CellTiter-Glo” value in the experiment with MDA-MB-436 and in the experiment on HCC1937 were 4110 nM and more than 10000 nM, respectively.

Take `CC(C)(C)c1nc(-c2cccc(NS(=O)(=O)c3c(F)cccc3F)c2F)c(-c2ccnc(N)n2)s1` [Dabrafenib]: the “EC50, CellTiter-Glo” value in the experiment with Hs578T is more than 2500 nM; in the experiment on DU-4475 it was 60 nM; in the experiment on CAL-120, 56.3 nM.

For `Nc1ccn([C@@H]2O[C@H](CO)[C@@H](O)C2(F)F)c(=O)n1` [Gemcitabine], the “EC50, CellTiter-Glo” value in the experiment with CAL-85-1 was determined as 18.5 nM; with SK-BR-3, 12.8 nM; with CAL-51 it was 12.5 nM; in the experiment with MDA-MB-453 it was 47.6 nM; with Hs578T, 26.9 nM; in the experiment on BT-549, 5.01 nM. Moreover, the “EC50, CellTiter-Glo” value with BT-474 amounted to 32.1 nM; with DU-4475, 20.7 nM; in the experiment on HCC1599, 18.4 nM; with CAL-120 it was 87.3 nM; with MDA-MB-468 it was 6.86 nM; in the experiment on MDA-MB-436, 9.55 nM.

Take `O=C(O)CNC(=O)c1c(O)c2ccccc2n(Cc2ccccc2)c1=O` [IOX-2]: the “EC50, CellTiter-Glo” value with CAL-51 is 1020 nM; in the experiment with BT-549, more than 50000 nM.

Take `CC(=O)[C@]1(O)Cc2c(O)c3c(c(O)c2[C@@H](O[C@H]2C[C@H](N)[C@H](O)[C@H](C)O2)C1)C(=O)c1ccccc1C3=O` [Idarubicin]: the “EC50, CellTiter-Glo” value is 252 nM in the experiment with CAL-85-1; 185 nM with SK-BR-3; 49.1 nM in the experiment on CAL-51; 286 nM with MDA-MB-231; 750 nM in the experiment on MDA-MB-453; 281 nM in the experiment with Hs578T. Besides, the “EC50, CellTiter-Glo” value in the experiment on BT-549 was determined as 144 nM; in the experiment on BT-474 it was 404 nM; with DU-4475 it was 193 nM; with HDQ-P1, 837 nM; with HCC1599, 466 nM; in the experiment on CAL-120, 580 nM. For the same molecule, the “EC50, CellTiter-Glo” value was determined as 152 nM with MDA-MB-468, 134 nM in the experiment with MDA-MB-436, 470 nM in the experiment on MFM-223 and 665 nM in the experiment on HCC1937.

Values taken from the supplement of paper PMC4862054.
